From patent US20100093702A1, “METHYLENE AMINES OF THIENO[2,3-d]PYRIMIDINE AND THEIR USE AS ADENOSINE A2a RECEPTOR ANTAGONISTS” (priority 2008, published 2010) come the findings set out here.

SMILES strings stand for the structures. A value given as a limit tells only on which side of the number the result lay.

For assay [1], the target named is T1, human adenosine A1 receptor (Homo sapiens, UniProt P30542).
T1 construct: expressed in transfected cells; host or cells: CHO-K1
T1 sequence (P30542 1-326): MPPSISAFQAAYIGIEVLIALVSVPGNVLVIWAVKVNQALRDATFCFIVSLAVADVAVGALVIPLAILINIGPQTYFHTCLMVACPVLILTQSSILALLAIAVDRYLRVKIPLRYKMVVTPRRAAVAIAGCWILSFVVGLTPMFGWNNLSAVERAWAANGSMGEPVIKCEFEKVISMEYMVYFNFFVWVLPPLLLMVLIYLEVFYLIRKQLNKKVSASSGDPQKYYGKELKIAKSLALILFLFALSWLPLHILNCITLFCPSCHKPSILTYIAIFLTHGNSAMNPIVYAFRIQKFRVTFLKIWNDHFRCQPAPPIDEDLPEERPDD
Put plainly: Adenosine A1 Receptor Functional Assay (A1GAL2). The settings on record: CHO-K1 cells, cAMP inducible beta-galactosidase reporter, 4 nM r-PIA/1 uM Forskolin challenge. In kind it is cell-based. Summed up:
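CHO-K1 cells expressing the receptor with a cAMP-inducible β-galactosidase reporter were preincubated with compound (11-point curves) about 15 min at room temperature, then challenged with r-PIA (4 nM)/forskolin (1 µM) for 5.5–6 h at 37 °C. Lysates were read colorimetrically at 405 nm, and IC/EC50 was obtained by curve fitting.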

Assay [2] deals with T2, human adenosine A2a receptor (Homo sapiens, UniProt P29274).
T2 construct: expressed in transfected cells; host or cells: CHO-K1
Put plainly: Adenosine A2a Receptor Functional Assay (A2AGAL2). In kind it is cell-based. The settings on record: CHO-K1 cells, cAMP inducible beta-galactosidase reporter, 15 nM NECA agonist challenge. In short, it runs like this:
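Antagonist mode in CHO-K1 cells expressing human A2a with a cAMP-inducible β-galactosidase reporter (10K cells/well, cultured 2 days). 11-point compound curves preincubated ~15 min at room temperature in Ham's F-12/0.1% BSA, then 15 nM NECA challenge, 5.5–6 h at 37 °C. Colorimetric β-gal read at 405 nm; IC/EC50 fitted.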

In assay [3] the target is T3, human A2a adenosine receptor (Homo sapiens, UniProt P29274).
T3 construct: purchased PerkinElmer RB-HA2a; host or cells: HEK293
Put plainly: Ligand Binding Assay for Adenosine A2a Receptor (A2A-B). The settings on record: HEK293 plasma membrane, radioligand [3H]CGS21680. As for the experimental part: Ligand Binding Assay for Adenosine A2a Receptor
Ligand binding assay of adenosine A2a receptor was performed using plasma membrane of HEK293 cells containing human A2a adenosine receptor (PerkinElmer, RB-HA2a) and radioligand [^3H]CGS21680 (PerkinElmer, NET 1021). Assay was set up in 96-well polypropylene plate in total volume of 200 μL by sequentially adding 20 μL 1:20 diluted membrane, 130 μL assay buffer (50 mM Tris.HCl, pH7.4 10 mM MgCl2, 1 mM EDTA) containing [^3H] CGS21680, 50 μL diluted compound (4×) or vehicle control in assay buffer. Nonspecific binding was determined by […] NECA. Reaction was carried out at room temperature for 2 hours before filtering through 96-well GF/C filter plate pre-soaked in 50 mM Tris.HCl, pH7.4 containing 0.3% polyethylenimine. Plates were then washed 5 times with cold 50 mM Tris.HCl, pH7.4, dried and sealed at the bottom. Microscintillation fluid 30 μL was added to each well and the top sealed. Plates were counted on Packard Topcount for [^3H]. Data was analyzed in Microsoft Excel and GraphPad Prism programs. (Varani, K.; Gessi, S.; Dalpiaz, A.; Borea, P. A. British Journal of Pharmacology, 1996, 117, 1693)

T2 sequence (P29274 whole entry): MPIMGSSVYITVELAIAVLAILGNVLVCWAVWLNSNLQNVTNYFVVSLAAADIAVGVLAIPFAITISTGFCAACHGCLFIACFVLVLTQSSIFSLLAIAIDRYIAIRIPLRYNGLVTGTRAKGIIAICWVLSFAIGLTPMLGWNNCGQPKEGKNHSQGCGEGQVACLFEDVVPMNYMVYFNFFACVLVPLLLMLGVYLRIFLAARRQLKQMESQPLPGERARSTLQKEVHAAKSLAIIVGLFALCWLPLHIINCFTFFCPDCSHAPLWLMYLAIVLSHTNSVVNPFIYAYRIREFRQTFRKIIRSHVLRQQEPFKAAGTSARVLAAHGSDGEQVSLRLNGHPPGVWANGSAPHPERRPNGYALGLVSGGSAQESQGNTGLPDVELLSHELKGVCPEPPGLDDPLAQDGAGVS
T3 sequence (P29274 whole entry): as above

As to `Nc1nc(-c2ccco2)nc2sc(CN3CCC(F)C3)cc12` (stereo not drawn) [Example 51, 6-(3-Fluoro-pyrrolidin-1-ylmethyl)-2-furan-2-yl-thieno[2,3-d]pyrimidin-4-ylamine], the figures for the Ki in assay [1], in assay [2] and in assay [3] were 1340 nM, 9.8 nM and 5.9 nM, respectively.
The like results for `Nc1nc(-c2ccco2)nc2sc(CN3CCC(O)CC3)cc12` [Example 52, 1-(4-Amino-2-furan-2-yl-thieno[2,3-d]pyrimidin-6-ylmethyl)-piperidin-4-ol] were, in that order, 4000 nM, 297 nM and 220 nM.
The like results for `Nc1nc(-c2ccco2)nc2sc(CN3CC[C@H](F)C3)cc12` [Example 53, 6-(3-Fluoro-pyrrolidin-1-ylmethyl)-2-furan-2-yl-thieno[2,3-d]pyrimidin-4-ylamine] were, in that order, 656 nM, 12.3 nM and 14 nM.
The like results for `Nc1nc(-c2ccco2)nc2sc(CN3CC[C@@H](F)C3)cc12` [Example 54, 6-(3-Fluoro-pyrrolidin-1-ylmethyl)-2-furan-2-yl-thieno[2,3-d]pyrimidin-4-ylamine] were, in that order, 878 nM, 11.5 nM and 8.2 nM.
Turning to `Nc1nc(-c2ccco2)nc2sc(CN3CCC(F)(F)CC3)cc12` [Example 56, 6-(4,4-Difluoro-piperidin-1-ylmethyl)-2-furan-2-yl-thieno[2,3-d]pyrimidin-4-ylamine], the inhibition constant Ki (in general, a dissociation constant, usually derived from enzyme kinetics or from competition with a known ligand) amounted to 2230 nM in assay [1], 48.7 nM in assay [2] and 21 nM in assay [3].
For the compound `Nc1nc(-c2ccco2)nc2sc(CN3CCCC(F)(F)C3)cc12` [Example 57, 6-(3,3-Difluoro-piperidin-1-ylmethyl)-2-furan-2-yl-thieno[2,3-d]pyrimidin-4-ylamine], the Ki was 294 nM in assay [1], 6.62 nM in assay [2] and 8.4 nM in assay [3].
For `N#Cc1cccc(-c2nc(N)c3cc(CN4CCCC(F)(F)C4)sc3n2)c1` [Example 62, 3-[4-Amino-6-(3,3-difluoro-piperidin-1-ylmethyl)-thieno[2,3-d]pyrimidin-2-yl]-benzonitrile], the Ki stood at 1180 nM in assay [1], 50.3 nM in assay [2] and 384 nM in assay [3].
The like results for `N#Cc1ccc(-c2nc(N)c3cc(CN4CC=CCC4)sc3n2)cc1` [Example 63, 4-[4-Amino-6-(3,6-dihydro-2H-pyridin-1-ylmethyl)-thieno[2,3-d]pyrimidin-2-yl]-benzonitrile] were, in that order, 1630 nM, 178 nM and 150 nM.
The corresponding values for `N#Cc1cccc(-c2nc(N)c3cc(CN4CC=CC4)sc3n2)c1` [Example 64, 3-[4-Amino-6-(2,5-dihydro-pyrrol-1-ylmethyl)-thieno[2,3-d]pyrimidin-2-yl]-benzonitrile] are 2070 nM, 83.5 nM and 77 nM.
With `N#Cc1cccc(-c2nc(N)c3cc(CN4CCCC4)sc3n2)c1` [Example 65, 3-(4-Amino-6-pyrrolidin-1-ylmethyl-thieno[2,3-d]pyrimidin-2-yl)-benzonitrile], the inhibition constant Ki in assay [1] is 129 nM; in assay [2], more than 10000 nM; in assay [3] it was 41.8 nM.
The corresponding values for `N#Cc1cccc(-c2nc(N)c3cc(CN4CC=CCC4)sc3n2)c1` [Example 68, 3-[4-Amino-6-(3,6-dihydro-2H-pyridin-1-ylmethyl)-thieno[2,3-d]pyrimidin-2-yl]-benzonitrile] are 212 nM, 13.3 nM and 378 nM.
Consider `Nc1nc(-c2cocn2)nc2sc(CN3CC=CC3)cc12` [Example 69, 6-(2,5-Dihydro-pyrrol-1-ylmethyl)-2-oxazol-4-yl-thieno[2,3-d]pyrimidin-4-ylamine], for which the inhibitory constant (Ki) is 3890 nM in assay [1], 238 nM in assay [2] and 1020 nM in assay [3].
As for `Nc1nc(-c2cocn2)nc2sc(CN3CC=CCC3)cc12` [Example 70, 6-(3,6-Dihydro-2H-pyridin-1-ylmethyl)-2-oxazol-4-yl-thieno[2,3-d]pyrimidin-4-ylamine], the Ki in assay [1] was 2960 nM; in assay [2], 240 nM; in assay [3], 393 nM.
The corresponding values for `N#Cc1ccccc1-c1nc(N)c2cc(CN3CCC(F)CC3)sc2n1` [Example 73, 2-[4-Amino-6-(4-fluoro-piperidin-1-ylmethyl)-thieno[2,3-d]pyrimidin-2-yl]-benzonitrile] are 5050 nM, 1030 nM and 2020 nM.
Turning to `N#Cc1cccc(-c2nc(N)c3cc(CN4CCOCC4)sc3n2)c1` [Example 74, 3-(4-Amino-6-morpholin-4-ylmethyl-thieno[2,3-d]pyrimidin-2-yl)-benzonitrile], the values for the Ki in assay [1], in assay [2] and in assay [3] were 1010 nM, 35.9 nM and 93.2 nM, respectively.
The corresponding values for `N#Cc1cccc(-c2nc(N)c3cc(CN4C5CCC4CC5)sc3n2)c1` [Example 77, 3-[4-Amino-6-(7-aza-bicyclo[2.2.1]hept-7-ylmethyl)-thieno[2,3-d]pyrimidin-2-yl]-benzonitrile] are 2170 nM, 95 nM and 74.9 nM.
Take `Cn1cccc1-c1nc(N)c2cc(CN3CCC(F)CC3)sc2n1` [Example 78, 6-(4-Fluoro-piperidin-1-ylmethyl)-2-(1-methyl-1H-pyrrol-2-yl)-thieno[2,3-d]pyrimidin-4-ylamine]: the figures for the inhibition constant (Ki) in assay [1], in assay [2] and in assay [3] were 1600 nM, 634 nM and 733 nM, respectively.
The like results for `CC(C)c1ccccc1-c1nc(N)c2cc(CN3CCC(F)CC3)sc2n1` [Example 79, 6-(4-Fluoro-piperidin-1-ylmethyl)-2-(2-isopropyl-phenyl)-thieno[2,3-d]pyrimidin-4-ylamine] were, in that order, 4470 nM, 1040 nM and 7410 nM.
On to `COc1cccc(-c2nc(N)c3cc(CN4CC=CCC4)sc3n2)c1` [Example 80, 6-(3,6-Dihydro-2H-pyridin-1-ylmethyl)-2-(3-methoxy-phenyl)-thieno[2,3-d]pyrimidin-4-ylamine], for which the values for the Ki in assay [1], in assay [2] and in assay [3] were 1080 nM, 102 nM and 184 nM, respectively.
The corresponding values for `N#Cc1cccc(-c2nc(N)c3cc(CN4CCC(F)CC4)sc3n2)c1` [Example 82, 3-[4-Amino-6-(4-fluoro-piperidin-1-ylmethyl)-thieno[2,3-d]pyrimidin-2-yl]-benzonitrile] are 2950 nM, 53.8 nM and 444 nM.
The corresponding values for `N#Cc1cccc(-c2nc(N)c3cc(CN4CCSCC4)sc3n2)c1` [Example 83, 3-(4-Amino-6-thiomorpholin-4-ylmethyl-thieno[2,3-d]pyrimidin-2-yl)-benzonitrile] are 1780 nM, 64.9 nM and 281 nM.
With `COc1cccc(-c2nc(N)c3cc(CN4CCSCC4)sc3n2)c1` [Example 85, 2-(3-Methoxy-phenyl)-6-thiomorpholin-4-ylmethyl-thieno[2,3-d]pyrimidin-4-ylamine], the Ki was found to be 2960 nM in assay [1], 169 nM in assay [2] and 659 nM in assay [3].
The like results for `COc1cccc(-c2nc(N)c3cc(CN4CCCC(F)(F)C4)sc3n2)c1` [Example 86, 6-(3,3-Difluoro-piperidin-1-ylmethyl)-2-(3-methoxy-phenyl)-thieno[2,3-d]pyrimidin-4-ylamine] were, in that order, 1810 nM, 97.5 nM and 242 nM.
The corresponding values for `N#Cc1ccc(-c2nc(N)c3cc(CN4CC=CC4)sc3n2)cc1` [Example 88, 4-[4-Amino-6-(2,5-dihydro-pyrrol-1-ylmethyl)-thieno[2,3-d]pyrimidin-2-yl]-benzonitrile] are 2350 nM, 78.9 nM and 76 nM.
